Laboratory results taken from US8202554B2, “Extract of the family dioscoreaceae and composition for preventing or treating peripheral neuropathy comprising the same” (priority 2005, dated 2012).

How the values were obtained:
[1] = system: endogenous nerve growth factor; assay: Level of nerve growth factor in sciatic nerve of diabetes-induced mouse (ELISA); format: in vivo, alloxan-induced diabetic ICR mice; details: diabetes-induced mice, 10 mg/kg P.O three times per week, one month
Procedure: 7-week old male ICR mice underwent alimentary abstinence for 18 hours, and then alloxan dissolved in a physiological saline was once injected to them by intraperitoneal injection in an amount of 160 mg/kg to induce diabetes. Mice that maintained their fasting blood sugar to 200 mg/dl or more for one week, that is, diabetes-induced mice were selected and then divided into a control group (n=5), and a compound-administered group (n=5). The control group was administered with 0.2 ml of a solution of dimethylsulfoxide:ethanol (3:1), and the compound-administered group was administered with the compound of Formula 2 dissolved in a solution of dimethylsulfoxide:ethanol (3:1) in an amount of 10 mg/kg. The all groups were orally administered three times per one week, and the entire administration period was one month. The amount of an endogenous nerve growth factor in the sciatic nerve was measured by ELISA (see FIG. 7)
Accordingly, it is considered that the results shown in FIGS. 5 and 6 result from the nerve protecting function of the nerve growth factor.

PC 12 cell = assay: Measurement of neurite outgrowth; format: cell-based; details: PC12 cells, neurite length measured after 48 hours, vs ethanol control
Procedure: In an incubator with conditions including 5% CO2 and a temperature of 37° C., PC 12 cell (pheochromocytoma, ATCC Number: CRL-1721) was cultured in a RPMI 1640 medium supplemented with horse serum (10%, v/v), fetal bovine serum (5%, v/v), and 1% penicillin-streptomycin
In order to find the effect of the compound of Formula 2 on the neurite outgrowth, the mediums supplemented with 2% horse serum, 1% fetal bovine serum, and 1% penicillin-streptomycin were added to each 6-well plate coated with poly-d-lysine and then the PC12 cells were inoculated in 5×10^4 cells each well. After 24 hours, these wells were treated with 10 □/ml of ethanol, 10 □/□ of the compound of Formula 2, and 50 ng/□ of a nerve growth factor (R&D system, USA), respectively. Then, after 48 hours, the length of the neurite was measured using an inverted image contrast microscope (CK-2, Olympus, USA) (See FIG. 1 and FIG. 2)

[2] = system: sciatic nerve of diabetes-induced mouse; assay: Transmission speed of motor nerve and sensory nerve of sciatic nerve in diabetes-induced mouse; format: in vivo, alloxan-induced diabetic ICR mice; details: diabetes-induced mice, 10 mg/kg p.o. three times per week
Procedure: The therapeutic effect of the compound according to the present invention on the diabetic neuropathy, one of the multiple neuropathies, was identified by measuring the effect of the compound according to the present invention on the transmission speed of the motor nerve and sensory nerve in the sciatic nerve.
7-week old male ICR mice underwent alimentary abstinence for 18 hours, and then alloxan dissolved in a physiological saline was once injected to them by intraperitoneal injection in an amount of 160 mg/kg to induce diabetes. Mice that maintained their fasting blood sugar to 200 mg/dl or more for one week, that is, diabetes-induced mice were selected and then divided into a control group (n=7), and a compound-administered group (n=7). The control group was administered with 0.2 ml of a solution of dimethylsulfoxide:ethanol (3:1), and the compound-administered group was administered with the compound of Formula 2 dissolved in a solution of dimethylsulfoxide:ethanol (3:1) in an amount of 10 mg/kg. 7-week old male ICR mice in which diabetes was not induced were grouped as a normal group (n=7), and the normal group was administered with 0.2 ml of a solution of dimethylsulfoxide:ethanol (3:1). […] Administration-completed mice were sacrificed by cervical dislocation, and then the skin and muscle in the femoral region were quickly removed. Then, left and right sciatic nerves were respectively separated in a length of 20 mm or more and stored in a physiological saline while air flows through the physiological saline. The separated sciatic nerves were placed on a 20 mm round measurement plate. Then, a sensor and a stimulating probe were connected to respective neuroterminals and the electrical conductivity was measured using a digital storage oscilloscope to assess the nerve transmission speed (see FIGS. 5 and 6.)
In general, the myelin is a phospholipid membrane surrounding axons with several layers, and also called as myelin sheath. […]

[3] = system: sciatic nerve of diabetes-induced mouse; assay: Histological comparison of sciatic nerve of diabetes-induced mouse; format: in vivo, alloxan-induced diabetic ICR mice; details: diabetes-induced mice, compound 10 mg/kg p.o. three times per week, 2 months; toluidine blue, 600x/1200x
Procedure: The therapeutic effect of the compound according to the present invention on the neuropathy was identified by measuring a histological change of the sciatic nerve.
7-week old male ICR mice underwent alimentary abstinence for 18 hours, and then alloxan dissolved in a physiological saline was once injected to them by intraperitoneal injection in an amount of 160 mg/kg to induce diabetes. Mice that maintained their fasting blood sugar to 200 mg/dl or more for one week, that is, diabetes-induced mice were selected and then divided into a control group (n=5), an extract-administered group (n=5), and a compound-administered group (n=3). The control group was […] with 0.2 ml of a solution of dimethylsulfoxide:ethanol (3:1), the extract-administered group was administered with the extract obtained according to Example 1 dissolved in a solution of dimethylsulfoxide:ethanol (3:1) in an amount of 100 mg/kg, and the compound-administered group was administered with the compound of Formula 2 dissolved in a solution of dimethylsulfoxide:ethanol (3:1) in an amount of 10 mg/kg. All groups were treated three times by oral administration per one week, and the entire administration period was 2 months. […]

[4] = system: endogenous nerve growth factor; assay: Level of nerve growth factor in mouse serum (ELISA); format: in vivo; details: normal male ICR mice, 10 mg/kg orally once, after 24 hours
Procedure: The compound of Formula 2 was dissolved in 0.2 ml of a solution of dimethyl-sulfoxide:ethanol (3:1), and then orally administered once to 7-week old male ICR mice (n=7) in an amount of 10 mg/kg. After 24 hours, the amount of an endogenous nerve growth factor was measured by ELISA. As a control group, an ICR mouse was orally administered once with 0.2 ml of the dimethylsulfoxide:ethanol (3:1). Then, the amount of a nerve growth factor in the control group was measured in the same manner as described above.

[5] = system: sorbitol in the sciatic nerve; assay: Change in amount of sorbitol in sciatic nerve of diabetes-induced mouse (HPLC); format: in vivo, alloxan-induced diabetic ICR mice; details: diabetes-induced mice, 10 mg/kg p.o. three times per week, 2 weeks
Procedure: The therapeutic effect of the compound according to the present invention on the neuropathy was identified by measuring a change in the amount of sorbitol in the sciatic nerve.
7-week old male ICR mice underwent alimentary abstinence for 18 hours, and then alloxan dissolved in a physiological saline was once injected to them by intraperitoneal injection in an amount of 160 mg/kg to induce diabetes. Mice that maintained their fasting blood sugar to 200 mg/dl or more for one week, that is, diabetes-induced mice were selected and then divided into a control group (n=3), and a compound-administered group (n=3). The control group was administered with 0.2 ml of a solution of dimethylsulfoxide:ethanol (3:1), and the compound-administered group was administered with the compound of Formula 2 dissolved in a solution of dimethylsulfoxide:ethanol (3:1) in an amount of 10 mg/kg. 7-week old male ICR mice in which diabetes was not induced were grouped as a normal group (n=3), and the normal group was administered with 0.2 ml of a solution of dimethylsulfoxide:ethanol (3:1). […] Administration-completed mice were sacrificed by cervical dislocation, and then the amount of the sorbitol in the sciatic nerve was measured by HPLC (see FIG. 8). […]

[6] = system: endogenous nerve growth factor; assay: Level of nerve growth factor in serum of diabetes-induced mouse (ELISA); format: in vivo, alloxan-induced diabetic ICR mice; details: diabetes-induced mice, compound 10 mg/kg p.o., three times per week, one month
Procedure: An alloxan-induced diabetic mouse was prepared as an animal model having diabetic neuropathy, one of the multiple neuropathies.
7-week old male ICR mice underwent alimentary abstinence for 18 hours, and then alloxan dissolved in a physiological saline was once injected to them by intraperitoneal injection in an amount of 160 mg/kg to induce diabetes. Mice that maintained their fasting blood sugar to 200 mg/dl or more for one week, that is, diabetes-induced mice were selected and then divided into a control group (n=10), an extract-administered group (n=10), and a compound-administered group (n=10). The control group was administered with 0.2 ml of a solution of dimethylsulfoxide:ethanol (3:1), the extract-administered group was administered with the extract obtained according to Example 1 dissolved in a solution of dimethylsulfoxide:ethanol (3:1) in an amount of 100 mg/kg, and the compound-administered group was administered with the compound of Formula 2 dissolved in a solution of dimethylsulfoxide:ethanol (3:1) in an amount of 10 mg/kg. The all groups were orally administered three times per one week, and the entire administration period was one month. The amount of an endogenous nerve growth factor in the serum was measured by ELISA. […]

With `C[C@@H]1CC[C@@]2(OC1)O[C@H]1C[C@H]3[C@@H]4CC=C5C[C@@H](O)CC[C@]5(C)[C@H]4CC[C@]3(C)[C@H]1[C@@H]2C` [compound of Formula 2, 3beta, 25R-spirost-5-en-3-ol] the “nerve growth factor in the sciatic nerve, higher than vehicle control group” value [1] was “about 30%”, the neurite outgrowth (PC 12 cell; 10 □/□ of the compound) was “neurite outgrowth was induced” and the “transmission speed of the sensory nerve, higher than diabetes-induced control group” value ([2]; one month) was 25%. The “transmission speed of the motor nerve, higher than control group” value ([2]; two months) was 40%, the “transmission speed of the sensory nerve, higher than control group” value ([2]; two months) was 45% and the “histology of axon and myelin in the central part of the sciatic nerve” value [3] was “clearly observed”. The “nerve growth factor in the serum relative to control group” value [4] was “about 2.5 times”, the “sorbitol in the sciatic nerve, lower than diabetes-induced control group” value [5] was 10% and the “endogenous nerve growth factor in the serum relative to vehicle control group” value [6] was “four”.

With “nerve growth factor: nerve growth factor (R&D system, USA), positive control for neurite outgrowth [reference compound]” the neurite outgrowth (PC 12 cell; 50 ng/□ of nerve growth factor) was “neurite outgrowth was induced”.
